Measured values from patent US20100129800A1, “POLYMERS AND THEIR USE AS FLUORESCENT LABELS” (priority 2007, published 2010).

Test: Fluorescence properties of the new compounds (excitation and emission wavelengths)
Assay type: physicochemical
Details: free compound

Row | Fluorescence Excitation (nm) | Fluorescence emission (nm) | Compound
1 | 308 | 500 | CC(=O)NC1CC(C(=O)NC2CC(C(N)=O)N(C(=O)CNC(=O)c3c4ccccc4nc4c3[nH]c3ccccc34)C2)N(C(=O)CNC(=O)c2c3ccccc3nc3ccccc23)C1 (centres unmarked) [Example 55, 10H-Indolo[3,2-b]quinoline-11-carboxylic acid (2-{4-[4(4-acetylamino-1-{2-[(acridine-9-carbonyl)-amino]-acetyl}-pyrrolidine-2-carbonyl)-amino]-2-carbamoyl-pyrrolidin-1-yl}-2-oxo-ethyl)-amide]
2 | 275 | 440 | CC(=O)NC1CC(C(=O)NC2CC(C(=O)NC3CC(C(N)=O)N(C(=O)CNC(=O)c4c5ccccc5nc5ccccc45)C3)N(C(=O)CNC(=O)c3c4ccccc4nc4ccccc34)C2)N(C(=O)CNC(=O)c2c3ccccc3nc3ccccc23)C1 (centres unmarked) [Example 56, N^4-Acetyl-4-amino-{2-(acridine-9-carboxamide)acetyl}prolinyl-4-amino-{2-(acridine-9-carboxamide)acetyl}prolinyl-4-amino-{2-(acridine-9-carboxamide)acetyl}prolinamide]
3 | 348 | 505 | CC(=O)NC1CC(C(=O)NC2CC(C(=O)NC3CC(C(N)=O)N(C(=O)CNC(=O)c4c5ccccc5nc5c4[nH]c4ccccc45)C3)N(C(=O)CNC(=O)c3c4ccccc4nc4c3[nH]c3ccccc34)C2)N(C(=O)CNC(=O)c2c3ccccc3nc3c2[nH]c2ccccc23)C1 (centres unmarked) [Example 57, N^4-Acetyl-4-amino-{2-(10H-indolo[3,2-b]quinoline-11-carboxamide)acetyl}prolinyl-4-amino-{2-(10H-indolo[3,2-b]quinoline-11-carboxamide)acetyl}prolinyl-{2-(10H-indolo[3,2-b]quinoline-11-carboxamide)acetyl}prolinamide]
4 | 275 | 503 | CC(=O)NC1CC(C(=O)NC2CC(C(=O)NC3CC(C(N)=O)N(C(=O)CNC(=O)c4c5ccccc5nc5ccccc45)C3)N(C(=O)CNC(=O)c3c4ccccc4nc4c3[nH]c3ccccc34)C2)N(C(=O)CNC(=O)c2c3ccccc3nc3ccccc23)C1 (centres unmarked) [Example 58, N^4-Acetyl-4-amino-{2-(acridine-9-carboxamide)acetyl}prolinyl-4-amino-{2-(10H-indolo[3,2-b]quinoline-11-carboxamide)acetyl}proliny-4-amino-{2-(acridine-9-carboxamide)acetyl}prolinamide]
5 | 309 | 456 | CC(=O)N[C@H]1C[C@@H](C(=O)N[C@H]2C[C@@H](C(=O)N[C@H]3C[C@@H](C(N)=O)N(C(=O)CNC(=O)c4c5ccccc5nc5ccccc45)C3)N(C(=O)CNC(=O)c3c4ccccc4nc4ccccc34)C2)N(C(=O)CNC(=O)c2c3ccccc3nc3c2[nH]c2ccccc23)C1 [Example 60, N^4-Acetyl-4-amino-{2-(10H-indolo[3,2-b]quinoline-11-carboxamide)acetyl}prolinyl-4-amino-{2-(acridine-9-carboxamide)acetyl}prolinyl-4-amino-{2-(acridine-9-carboxamide)acetyl}prolinamide]
6 | 348 | 488 | CC(=O)NC1CC(C(=O)NC2CC(C(=O)NC3CC(C(N)=O)N(C(=O)CNC(=O)c4c5ccccc5nc5c4[nH]c4ccccc45)C3)N(C(=O)CNC(=O)c3c4ccccc4nc4ccccc34)C2)N(C(=O)CNC(=O)c2c3ccccc3nc3c2[nH]c2ccccc23)C1 (centres unmarked) [Example 61, N^4-Acetyl-4-amino-{2-(10H-indolo[3,2-b]quinoline-11-carboxamide)acetyl}prolinyl-4-amino-{2-(acridine-9-carboxamide)acetyl}prolinyl-4-amino-{2-(10H-indolo[3,2-b]quinoline-11-carboxamide)acetyl}prolinamide]
7 | 272 | 503 | CC(=O)N1CC(NC(=O)CNC(=O)c2c3ccccc3nc3ccccc23)C[C@H]1C(=O)N1CC(NC(=O)CNC(=O)c2c3ccccc3nc3c2[nH]c2ccccc23)C[C@H]1C(=O)N1CC(NC(=O)CNC(=O)c2c3ccccc3nc3c2[nH]c2ccccc23)C[C@H]1C(N)=O (some centres unmarked) [Example 63, N^4-Acetyl-4-amino-{2-(acridine-9-carboxamide)acetyl}prolinyl-4-amino-{2-(10H-indolo[3,2-b]quinoline-11-carboxamide)acetyl}proliny-4-amino-{2-(10H-indolo[3,2-b]quinoline-11-carboxamide)acetyl}prolinamide]
8 | 347 | 488 | CC(=O)NC1CC(C(=O)NC2CC(C(=O)NC3CC(C(=O)NC4CC(C(=O)NC5CC(C(N)=O)N(C(=O)CNC(=O)c6cc(-c7ccccc7)nc7ccccc67)C5)N(C(C)=O)C4)N(C(=O)CNC(=O)c4c5ccccc5nc5ccccc45)C3)N(C(C)=O)C2)N(C(=O)CNC(=O)c2c3ccccc3nc3c2[nH]c2ccccc23)C1 (centres unmarked) [Example 64]
9 | 249 | 442 | CC(=O)NC1CC(C(=O)NC2CC(C(=O)NC3CC(C(=O)NC4CC(C(=O)NC5CC(C(N)=O)N(C(=O)CNC(=O)c6c7ccccc7nc7c6[nH]c6ccccc67)C5)N(C(C)=O)C4)N(C(=O)CNC(=O)c4cc(-c5ccccc5)nc5ccccc45)C3)N(C(C)=O)C2)N(C(=O)CNC(=O)c2c3ccccc3nc3ccccc23)C1 (centres unmarked) [Example 65, N^4-Acetyl-4-amino-{2-(acridine-9-carboxamide)acetyl}prolinyl-4-aminoprolinyl-4-amino-[(2-phenyl-quinoline-4-carboxamide)acetyl]prolinamide-4-aminoprolinyl-4-amino-{2-(10H-indolo[3,2-b]quinoline-11-carboxamide)acetyl}prolinamide]
10 | 269 | 432 | CC(=O)NC1CC(C(=O)NC2CC(C(=O)NC3CC(C(=O)NC4CC(C(=O)NC5CC(C(=O)NC6CC(C(=O)NC7CC(C(N)=O)N(C(=O)CNC(=O)c8cc(-c9ccccc9)nc9ccccc89)C7)N(C(C)=O)C6)N(C(C)=O)C5)N(C(=O)CNC(=O)c5c6ccccc6nc6ccccc56)C4)N(C(C)=O)C3)N(C(C)=O)C2)N(C(=O)CNC(=O)c2c3ccccc3nc3c2[nH]c2ccccc23)C1 (centres unmarked) [Example 66, N^4-Acetyl-4-amino-{2-(10H-indolo[3,2-b]quinoline-11-carboxamide)acetyl}prolinyl-4-aminoprolinyl-4-aminoprolinyl-4-amino-{2-(acridine-9-carboxamide)acetyl}prolinyl-4-aminoprolinyl-4-aminoprolinyl-4-amino-[(2-phenyl-quinoline-4-carboxamide)acetyl]prolinamide]
11 | 265 | 451 | CC(=O)NC1CC(C(=O)NC2CC(C(=O)NC3CC(C(=O)NC4CC(C(=O)NC5CC(C(=O)NC6CC(C(=O)NC7CC(C(N)=O)N(C(=O)CNC(=O)c8c9ccccc9nc9c8[nH]c8ccccc89)C7)N(C(C)=O)C6)N(C(C)=O)C5)N(C(=O)CNC(=O)c5cc(-c6ccccc6)nc6ccccc56)C4)N(C(C)=O)C3)N(C(C)=O)C2)N(C(=O)CNC(=O)c2c3ccccc3nc3ccccc23)C1 (centres unmarked) [Example 67]
12 | 360 | 435 | CC(=O)N[C@@H](CCCNC(=O)CNC(=O)c1c2ccccc2nc2ccccc12)C(=O)N[C@@H](CCCNC(=O)CNC(=O)c1c2ccccc2nc2ccccc12)C(=O)N[C@@H](CCCNC(=O)CNC(=O)c1c2ccccc2nc2ccccc12)C(N)=O [Example 68, N^4-Acetyl-5-N-{2-(acridine-9-carboxamide)acetyl}ornithinyl-5-N-{2-(acridine-9-carboxamide)acetyl}ornithinyl-5-N-{2-(acridine-9-carboxamide)acetyl}ornithinamide]
13 | 357 | 441 | CC(=O)N[C@@H](CCCNC(=O)CNC(=O)c1c2ccccc2nc2ccccc12)C(=O)N[C@@H](CCCNC(=O)CNC(=O)c1c2ccccc2nc2c1[nH]c1ccccc12)C(=O)N[C@@H](CCCNC(=O)CNC(=O)c1c2ccccc2nc2ccccc12)C(N)=O [Example 69, N^4-Acetyl-5-N-{2-(acridine-9-carboxamide)acetyl}ornithinyl-5-N-{2-(10H-indolo[3,2-b]quinoline-11-carboxamide)acetyl}ornithinyl-5-N-{2-(acridine-9-carboxamide)acetyl}ornithinamide]
14 | 248 |  | CC(=O)N[C@@H](CCCNC(=O)CNC(=O)c1c2ccccc2nc2ccccc12)C(=O)N[C@@H](CCCNC(=O)CNC(=O)c1c2ccccc2nc2c1[nH]c1ccccc12)C(=O)N[C@@H](CCCNC(=O)CNC(=O)c1c2ccccc2nc2c1[nH]c1ccccc12)C(N)=O [Example 70, N^4-Acetyl-5-N-{2-(acridine-9-carboxamide)acetyl}ornithinyl-5-N-{2-(10H-indolo[3,2-b]quinoline-11-carboxamide)acetyl}ornithinyl-5-N-{2-(10H-indolo[3,2-b]quinoline-11-carboxamide)acetyl}ornithinamide]
15 | 338 | 466 | CC(=O)N[C@@H](CCCNC(=O)CNC(=O)c1c2ccccc2nc2c1[nH]c1ccccc12)C(=O)N[C@@H](CCCNC(=O)CNC(=O)c1c2ccccc2nc2c1[nH]c1ccccc12)C(=O)N[C@@H](CCCNC(=O)CNC(=O)c1c2ccccc2nc2c1[nH]c1ccccc12)C(N)=O [Example 71, N^4-Acetyl-5-N-{2-(10H-indolo[3,2-b]quinoline-11-carboxamide)acetyl}ornithinyl-5-N-{2-(10H-indolo[3,2-b]quinoline-11-carboxamide)acetyl}ornithinyl-5-N-{2-(10H-indolo[3,2-b]quinoline-11-carboxamide)acetyl}ornithinamide]
